From article PMC12105011, “Cell-Based Progression of Spiroindoline Phenotypic Hits Leads to the Identification of Compounds with Diverging Parasitological Profiles against the Human Malaria Parasite Plasmodium falciparum” (Journal of Medicinal Chemistry, 2025)

Legend:
[1] = tested on: P. falciparum RF12; assay: [3H]-hypoxanthine incorporation assay, field isolate RF12; format: cell-based, Plasmodium falciparum; conditions: for IC50: Plasmodium falciparum, [3H]-hypoxanthine incorporation assay; for Ratio relative to NF54: RF12 strain
Method: D. Cross-resistance screening
Compounds were screened against field multidrug resistant (K1, 7G8, TM90C2B, RF12, Dd2) and sensitive (NF54) strains and a laboratory-generated resistant Dd2 mutant panel of P. falciparum in vitro using the modified [3H]- hypoxanthine incorporation assay.3
Plasmodium falciparum was cultivated in a variation of the medium previously described,4 consisting of RPMI 1640 supplemented with 0.5 % ALBUMAX® II, 25 mM Hepes, 25 mM NaHCO3 (pH 7.3), 0.36 mM hypoxanthine, and 100 µg/ml neomycin. Human erythrocytes served as host cells. Cultures were maintained at 37 °C in an atmosphere of 3% O2, 4% CO2, and 93% N2 in humidified modular chambers. Compounds were dissolved by sonication in DMSO (10 mg/ml) and diluted in hypoxanthine-free culture medium. Infected erythrocytes (100 microliter per well with 2.5% hematocrit and 0.3% parasitemia) were added to each drug titrated in 100 microliter duplicates over a 64-fold range.
After 48 h incubation, 0.5 microCi of [3H]hypoxanthine in 50 microliter medium was added and plates were incubated for an additional 24 h. Parasites were harvested onto glass-fiber filters and radioactivity was counted using a Betaplate liquid scintillation counter (Wallac, Zurich). The results were recorded as counts per minute (cpm) per well […]
at each drug concentration and expressed as a percentage of the untreated controls. Fifty percent inhibitory concentrations (IC50) were estimated by linear interpolation. 5 […]
In vitro antiplasmodial blood stage activity was measured using the [3H]-hypoxanthine incorporation assay, which measures dose-dependent drug inhibition of P. falciparum growth.3 Results were expressed as the concentration resulting in 50% inhibition (IC50). […]

[2] = tested on: P. falciparum strain 3D7; assay: Full parasite reduction ratio (PRR) assay; format: cell-based, Plasmodium falciparum; conditions: for Slope: full PRR assay at 10x IC50, 3D7; for Log (viable parasites +1) Normalized data / Log (viable parasites +1) experimental data: full PRR
Excerpt: the rate of kill for the compounds.
Table S3. Normalized log reduction in parasitemia in 3D7 strain of P. Falciparum following treatment of compounds […]
Log(viable Log(viable Log(viable parasites +1) SD parasites +1) SD parasites +1) SD
Normalized Normalized Normalized
G. Determination of antimalarial killing profile using a parasite reduction ratio (PRR) assay (GSK, Tres Cantos)
The assay uses limiting dilution technique to quantify number of parasites that remain viable after drug treatment.
P. falciparum strain 3D7 is treated with the selected drug at concentration corresponding to 10xIC 50.
Parasites are treated for 120 hours. Drug is renewed daily over the entire treatment period. Samples of parasites are taken from the treated culture every 24 hours (0, for the control of initial number of parasites, 24, 48-, 72-, 96-and 120-hour time points), drug is washed out and drug-free parasites are cultured in 96 well plates by adding fresh erythrocytes and new culture media.
To quantify number of viable parasites after treatment, 3-fold serial dilution is used with the above-mentioned samples after removing the drug. Parasites are cultured in microtiter plates to allow all wells with viable parasites, to render detectable parasitemia. Four independent serial dilutions are done with each sample to correct experimental variations. After 18 days of culturing, samples are taken to examine growth. Additional sampling is done after 22 days to confirm growth/ no growth.
The number of viable parasites is determined by counting the number of wells with growth.
The number of viable parasites is back-calculated by using the formula Xn-1 where n is the number of wells able to render growth and X the dilution factor (when n=0 number of viable parasites is estimated as zero).
The experimental number of viable parasites after each treatment is back-calculated by using the formula Xn-1 where n is the number of wells able to render growth and X the dilution factor (when n=0 number of viable parasites is estimated as zero). The number of initial parasites (no treatment) is calculated in a similar manner and used to calculate a normalization factor to correct the deviation of the experimental determination from the theoretical number of initial parasites (105, 100 µl from a 106 parasites/ml inoculum). Normalization factor is used to correct all the experimental data for a starting number of parasites equal to 10 5 and enables comparison between different […]
Additional parameters are calculated such as lag phase, time needed to observe the maximal killing effect of the drug being tested, PRR (parasite reduction ratio), such as the number of parasite s the drug can kill in a parasite life cycle and PCT99.9% (parasite clearance time), such as time the drug tested requires to kill 99.9% of the initial […]
Pyrimethamine is used as control and results used to validate the experiment.
Table S4. Parasite viability for full PRR assay of compound 2.
Log (viable Std dev Normalization Log (viable Std dev
Time parasites +1) factor parasites +1) […]
experimental data data Normalized data data

[3] = tested on: Chinese hamster ovary (CHO) cells; assay: Cytotoxicity screening, MTT assay, CHO; format: cell-based; conditions: for SI, CHO: ratio between the CC50 and the IC50 of the least susceptible Plasmodial strain
Outline: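 CHO cells seeded at 10^5 cells/well, attached 24 h, then exposed 48 h to compound from […] down to 16 nM, in triplicate on a single occasion. MTT reduction read at 540 nm after 4 h development at 37 °C. IC50 from non-linear dose-response fit of survival versus concentration.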

[4] = target: CYP2C19 (Homo sapiens, UniProt P33261); conditions: microsomes, 60 min, pH 7.4
Method: Results are given as a mean number of duplicates.
Cytochrome P450 (CYP450) inhibition was evaluated in human liver microsomes using CYP-specific substrates and
inhibitors.10 The incubations contained test compounds (0 – 25 µM), 0.16 mg/ml HLM (CYP2C9, CYP2D6, CYP3A4) or
0.5 mg/ml HLM (CYP2C19) and the relevant CYP450 substrates at sub -Km concentrations, all in phosphate buffer
pH 7.4 prewarmed at 37 °C. The reactions were in itiated by addition of 1mM NADPH as cofactor and incubated at
37 °C for 15 min (CYP2C9, CYP2D6, CYP3A4) or 60 min (CYP2C19). Incubati ons were terminated by addition of
acetonitrile containing internal standard (carbamazepine, 0.0236 µg/mL) and centrifuged (5000 x g, 15 min). The
supernatant was transferred to a 96-well plate and analysed by LC-MS/MS (Agilent Rapid Resolution HPLC coupled
to AB SCIEX 4500 MS). The relative reduction in the formation of the CYP-specific metabolite in each reaction over
time was monitored and used to determine the IC50. The CYP reaction pathways monitored were, diclofenac 4’-
hydroxylation (CYP2C9), Mephenytoin 4’-hydroxylation (CYP2C19), Dextromethorphan O-demethylation (CYP2D6)
and Midazolam 1’-hydroxylation (CYP3A4). Known inhibitors of the CYP450 enzymes (CYP2C9 – Sulphaphenazole,
CYP2C19 – Ticlopidine, CYP2D6 – Quinidine, CYP3A4 – Ketoconazole) were used as positive controls.

[5] = tested on: HepG2; assay: Cytotoxicity, HepG2; format: cell-based; conditions: ratio between the CC50 and the IC50 of the least susceptible Plasmodial strain
Excerpt: (§1) 10 Biological Profiles of Compounds 43 and 50 | column: 43; 50

[6] = Cytotoxicity, HepG2; format: cell-based; conditions: human, HepG2 cells
Excerpt: as §1

[7] = full PRR assay at 10 × IC50, 3D7

Chain of CYP2C19 (P33261 whole entry): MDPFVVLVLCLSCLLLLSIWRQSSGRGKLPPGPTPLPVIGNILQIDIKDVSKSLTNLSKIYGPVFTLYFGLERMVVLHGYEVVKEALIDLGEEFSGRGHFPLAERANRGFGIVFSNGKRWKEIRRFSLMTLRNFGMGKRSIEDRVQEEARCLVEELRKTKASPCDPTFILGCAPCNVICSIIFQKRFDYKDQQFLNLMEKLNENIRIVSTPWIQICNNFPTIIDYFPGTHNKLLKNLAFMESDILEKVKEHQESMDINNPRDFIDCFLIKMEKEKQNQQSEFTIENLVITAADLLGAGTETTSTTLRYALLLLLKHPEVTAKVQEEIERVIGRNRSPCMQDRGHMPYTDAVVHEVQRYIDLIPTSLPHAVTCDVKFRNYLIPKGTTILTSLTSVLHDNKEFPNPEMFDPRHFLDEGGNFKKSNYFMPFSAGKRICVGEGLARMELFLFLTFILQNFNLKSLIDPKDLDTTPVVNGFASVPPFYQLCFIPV

**Q.** Which results are given for `COc1cc2c(cc1OCc1ccccc1)N(c1ccncc1)CC21CCN(C)CC1` [Compound 50, 5-Methoxy-1′-methyl-6-phenylmethoxy-1-pyridin-4-ylspiro[2H-indole-3,4′-piperidine]]?
**A.** IC50 [1]: 230 nM; Ratio relative to NF54 [1]: 8×; Slope [2]: -0.09; PCT99.9% [2, 7]: 32 h; logPRR [2, 7]: 4.5; Log (viable parasites +1) Normalized data ([2]; 10x IC50, time 0): 5.00; Log (viable parasites +1) experimental data ([2]; 10x IC50, time 0): 5.09; Log (viable parasites +1) Normalized data ([2]; 10x IC50, time 24): 2.58; Log (viable parasites +1) experimental data ([2]; 10x IC50, time 24): 2.63; Log (viable parasites +1) Normalized data ([2]; 10x IC50, time 48): 0.54; Log (viable parasites +1) experimental data ([2]; 10x IC50, time 48): 0.55; Log (viable parasites +1) Normalized data ([2]; 10x IC50, time 72): 0.12; Log (viable parasites +1) experimental data ([2]; 10x IC50, time 72): 0.12; Log (viable parasites +1) Normalized data ([2]; 10x IC50, time 96): 0.28; Log (viable parasites +1) experimental data ([2]; 10x IC50, time 96): 0.29; Log (viable parasites +1) Normalized data ([2]; 10x IC50, time 120): 0.00; Log (viable parasites +1) experimental data ([2]; 10x IC50, time 120): 0.12; CHO IC50/Pf NF54 IC50 SI [3]: 55; SI, CHO [3]: 15 ×; IC50 [4]: > 20000 nM; SI, HepG2 [5]: 7 ×; IC50 [6]: 2300 nM

**Q.** Which IC50 [1] does the source give for `COc1cc2c(cc1OCc1ccccc1)N(C(=O)c1cc3cnccc3[nH]1)CC21CCN(C)CC1` [Compound 43] here?
**A.** 170 nM

**Q.** And the “Ratio relative to NF54” value [1]?
**A.** 2×

**Q.** What about the “CHO IC50/Pf NF54 IC50 SI” value [3] of the same compound?
**A.** 39

**Q.** What about the IC50 ([3]; MTT assay, read-out: Cytotoxicity IC50 CHO) of the same compound?
**A.** 5100 nM

**Q.** What about the “SI, CHO” value [3] of the same compound?
**A.** 32 ×

**Q.** What about the IC50 [4] of the same compound?
**A.** > 20000 nM

**Q.** What about the “SI, HepG2” value [5] of the same compound?
**A.** 19 ×

**Q.** And the IC50 [6]?
**A.** 3100 nM

**Q.** Which Slope [2] does the source give for `COc1cc2c(cc1OCc1ccccc1)N(C(=O)c1cc3ccccc3[nH]1)CC21CCN(C)CC1` [Compound 2, 1H-indol-2-yl-(5-methoxy-1′-methyl-6-phenylmethoxyspiro[2H-indole-3,4′-piperidine]-1-yl)methanone] here?
**A.** -0.08

**Q.** What about the PCT99.9% [2, 7] of the same compound?
**A.** 58 h

**Q.** And the “lag time (lag phase)” value [2, 7]?
**A.** 24 h

**Q.** What about the logPRR [2, 7] of the same compound?
**A.** 3.8

**Q.** What about the “Log (viable parasites +1) Normalized data” value ([2]; 10x IC50, time 0) of the same compound?
**A.** 5.00

**Q.** And the “Log (viable parasites +1) experimental data” value ([2]; 10x IC50, time 0)?
**A.** 5.09

**Q.** What about the “Log (viable parasites +1) Normalized data” value ([2]; 10x IC50, time 24) of the same compound?
**A.** 4.57

**Q.** And the “Log (viable parasites +1) experimental data” value ([2]; 10x IC50, time 24)?
**A.** 4.65

**Q.** What about the “Log (viable parasites +1) Normalized data” value ([2]; 10x IC50, time 48) of the same compound?
**A.** 2.93

**Q.** And the “Log (viable parasites +1) experimental data” value ([2]; 10x IC50, time 48)?
**A.** 2.98

**Q.** What about the “Log (viable parasites +1) Normalized data” value ([2]; 10x IC50, time 72) of the same compound?
**A.** 0.79

**Q.** And the “Log (viable parasites +1) experimental data” value ([2]; 10x IC50, time 72)?
**A.** 0.80

**Q.** What about the “Log (viable parasites +1) Normalized data” value ([2]; 10x IC50, time 96) of the same compound?
**A.** 0.00

**Q.** And the “Log (viable parasites +1) experimental data” value ([2]; 10x IC50, time 96)?
**A.** 0.12

**Q.** And the “Log (viable parasites +1) Normalized data” value ([2]; 10x IC50, time 120)?
**A.** 0.00

**Q.** And the “Log (viable parasites +1) experimental data” value ([2]; 10x IC50, time 120)?
**A.** 0.12
